Assay results as given in patent publication US6355799B1, “Substituted benzene compounds, process for their preparation, and herbicidal and defoliant compositions containing them” (ISK Americas Incorporated, priority 1997, dated 2002).

How the values were obtained:
Assay type in all cases: in vivo
[1] = system: redroot pigweed (Amaranthus retroflexus, AMARE); assay: Pre-emerge test, greenhouse herbicide activity screening; conditions: rated 14 days after application, 0 = no damage, 100 = complete death
How it was run: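 Visual ratings on a 0-100 scale (0 no damage, 100 all plants dead) were taken at 14 days after treatment. Rates of 15-1000 g ai/ha in acetone, 187 l/ha, were sprayed onto soil one day after planting (pre-emerge) or onto 2-3 leaf plants with 0.25% v/v surfactant (post-emerge).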

[2] = system: barnyardgrass (Echinochloa crus-galli, ECHCG); assay: as above; conditions: rated 14 days after application, 0 = no damage, 100 = complete death
How it was run: (§1)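 Compounds in acetone were track-sprayed at 15–1000 g ai/ha: pre-emergence onto soil sown the previous day, then top-watered to incorporate and later bottom-watered; post-emergence onto 2–3 leaf plants with 0.25% v/v surfactant, bottom-watered only. Ratings on a 0–100 phytotoxicity scale were taken at day 14.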

[3] = system: common ragweed (Ambrosia artemisizfolia L., AMBEL); assay: as above; conditions: rated 14 days after application, 0 = no damage, 100 = complete death
How it was run: as §1

[4] = system: green foxtail (Setaria viridis, SETVI); assay: as above; conditions: rated 14 days after application, 0 = no damage, 100 = complete death
How it was run: as §1

[5] = system: ivyleaf morningglory (Ipomoea hederacea, IPOHE); assay: as above; conditions: rated 14 days after application, 0 = no damage, 100 = complete death
How it was run: as §1

[6] = system: johnsongrass (Sorghum halepense, SORHA); assay: as above; conditions: rated 14 days after application, 0 = no damage, 100 = complete death
How it was run: as §1

[7] = system: lambsquarters (Chenopodium album, CHEAL); assay: as above; conditions: rated 14 days after application, 0 = no damage, 100 = complete death
How it was run: as §1

[8] = system: large crabgrass (Digitaria sanguinalis, DIGSA); assay: as above; conditions: rated 14 days after application, 0 = no damage, 100 = complete death
How it was run: as §1

[9] = system: sicklepod (Cassia obtusifolia, CASOB); assay: as above; conditions: rated 14 days after application, 0 = no damage, 100 = complete death
How it was run: as §1

[10] = system: velvetleaf (Abutilon theophrasti, ABUTH); assay: as above; conditions: rated 14 days after application, 0 = no damage, 100 = complete death
How it was run: as §1

[11] = system: field corn (Zea mays L., var. Dekalb 535, CORN); assay: Pre-emerge test, crop safety; conditions: rated 14 days after application, 0 = no damage, 100 = complete death
How it was run: (§2)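 Rating: 0–100 visual injury, 14 DAA. Application: acetone, 187 l/ha, 15–1000 g ai/ha, flat-fan track sprayer with nozzle 40–45 cm above soil or canopy. Post-emerge runs used 0.25% v/v surfactant on 2–3 leaf plants.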

[12] = system: upland rice (Oryza sp., var. Tebonnet, RICE); assay: Pre-emerge test, crop safety; conditions: rated 14 days after application, 0 = no damage, 100 = complete death
How it was run: as §2

[13] = system: barnyardgrass (Echinochloa crus-galli, ECHCG); assay: Post-emerge test, greenhouse herbicide activity screening; conditions: post-emerge, 14 days after application, rating scale 0-100
How it was run: (§3)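 Applied at 15–1000 g ai/ha from acetone in 187 l/ha spray volume. Post-emergence applications included 0.25% v/v non-ionic surfactant and reached plants sown 8–21 days before. Pre-emergence applications were incorporated by surface watering. Efficacy or crop damage was rated on a 0–100 scale after 14 days.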

[14] = system: common ragweed (Ambrosia artemisizfolia L., AMBEL); assay: as above; conditions: post-emerge, 14 days after application, rating scale 0-100
How it was run: as §3

[15] = system: green foxtail (Setaria viridis, SETVI); assay: as above; conditions: post-emerge, 14 days after application, rating scale 0-100
How it was run: as §3

[16] = system: ivyleaf morningglory (Ipomoea hederacea, IPOHE); assay: as above; conditions: post-emerge, 14 days after application, rating scale 0-100
How it was run: as §3

[17] = system: johnsongrass (Sorghum halepense, SORHA); assay: as above; conditions: post-emerge, 14 days after application, rating scale 0-100
How it was run: as §3

[18] = system: lambsquarters (Chenopodium album, CHEAL); assay: as above; conditions: post-emerge, 14 days after application, rating scale 0-100
How it was run: as §3

[19] = system: large crabgrass (Digitaria sanguinalis, DIGSA); assay: as above; conditions: post-emerge, 14 days after application, rating scale 0-100
How it was run: as §3

[20] = system: redroot pigweed (Amaranthus retroflexus, AMARE); assay: as above; conditions: post-emerge, 14 days after application, rating scale 0-100
How it was run: as §3

[21] = system: sicklepod (Cassia obtusifolia, CASOB); assay: as above; conditions: post-emerge, 14 days after application, rating scale 0-100
How it was run: as §3

[22] = system: velvetleaf (Abutilon theophrasti, ABUTH); assay: as above; conditions: post-emerge, 14 days after application, rating scale 0-100
How it was run: as §3

[23] = system: field corn (Zea mays L., var. Dekalb 535, CORN); assay: Post-emerge test, crop safety; conditions: post-emerge, 14 days after application, rating scale 0-100
How it was run: as §2

[24] = system: upland rice (Oryza sp., var. Tebonnet, RICE); assay: Post-emerge test, crop safety; conditions: post-emerge, 14 days after application, rating scale 0-100
How it was run: as §2

COc1c(Cl)cc(F)c(-n2c(=O)cc(C(F)(F)F)n(C)c2=O)c1N(C(=O)c1ccc(Cl)nc1)C(=O)c1ccc(Cl)nc1 [2-100]
Pre-emerge Herbicidal Activity, phytotoxicity rating (0-100), AMARE ([1]; 63 g ai/ha): 100 | Pre-emerge Herbicidal Activity, phytotoxicity rating (0-100), AMARE ([1]; 250 g ai/ha): 100 | Pre-emerge Herbicidal Activity, phytotoxicity rating (0-100), ECHCG ([2]; 63 g ai/ha): 70 | Pre-emerge Herbicidal Activity, phytotoxicity rating (0-100), ECHCG ([2]; 250 g ai/ha): 90 | Pre-emerge Herbicidal Activity, phytotoxicity rating (0-100), AMBEL ([3]; 63 g ai/ha): 90 | Pre-emerge Herbicidal Activity, phytotoxicity rating (0-100), AMBEL ([3]; 250 g ai/ha): 100 | Pre-emerge Herbicidal Activity, phytotoxicity rating (0-100), SETVI ([4]; 63 g ai/ha): 100 | Pre-emerge Herbicidal Activity, phytotoxicity rating (0-100), SETVI ([4]; 250 g ai/ha): 100 | Pre-emerge Herbicidal Activity, phytotoxicity rating (0-100), IPOHE ([5]; 63 g ai/ha): 100 | Pre-emerge Herbicidal Activity, phytotoxicity rating (0-100), IPOHE ([5]; 250 g ai/ha): 100 | Pre-emerge Herbicidal Activity, phytotoxicity rating (0-100), SORHA ([6]; 63 g ai/ha): 85 | Pre-emerge Herbicidal Activity, phytotoxicity rating (0-100), SORHA ([6]; 250 g ai/ha): 100 | Pre-emerge Herbicidal Activity, phytotoxicity rating (0-100), CHEAL ([7]; 63 g ai/ha): 100 | Pre-emerge Herbicidal Activity, phytotoxicity rating (0-100), CHEAL ([7]; 250 g ai/ha): 100 | Pre-emerge Herbicidal Activity, phytotoxicity rating (0-100), DIGSA ([8]; 63 g ai/ha): 90 | Pre-emerge Herbicidal Activity, phytotoxicity rating (0-100), DIGSA ([8]; 250 g ai/ha): 100 | Pre-emerge Herbicidal Activity, phytotoxicity rating (0-100), CASOB ([9]; 63 g ai/ha): 30 | Pre-emerge Herbicidal Activity, phytotoxicity rating (0-100), CASOB ([9]; 250 g ai/ha): 100 | Pre-emerge Herbicidal Activity, phytotoxicity rating (0-100), ABUTH ([10]; 63 g ai/ha): 100 | Pre-emerge Herbicidal Activity, phytotoxicity rating (0-100), ABUTH ([10]; 250 g ai/ha): 100 | Pre-emerge phytotoxicity rating (0-100), crop damage, CORN ([11]; 63 g ai/ha): 45 | Pre-emerge phytotoxicity rating (0-100), crop damage, CORN ([11]; 250 g ai/ha): 95 | Pre-emerge phytotoxicity rating (0-100), crop damage, RICE ([12]; 63 g ai/ha): 75 | Pre-emerge phytotoxicity rating (0-100), crop damage, RICE ([12]; 250 g ai/ha): 90 | phytotoxicity rating ECHCG ([13]; 63 g ai/ha): 0 | phytotoxicity rating ECHCG ([13]; 250 g ai/ha): 30 | phytotoxicity rating AMBEL ([14]; 63 g ai/ha): 70 | phytotoxicity rating AMBEL ([14]; 250 g ai/ha): 90 | phytotoxicity rating SETVI ([15]; 63 g ai/ha): 60 | phytotoxicity rating SETVI ([15]; 250 g ai/ha): 70 | phytotoxicity rating IPOHE ([16]; 63 g ai/ha): 100 | phytotoxicity rating IPOHE ([16]; 250 g ai/ha): 100 | phytotoxicity rating SORHA ([17]; 63 g ai/ha): 0 | phytotoxicity rating SORHA ([17]; 250 g ai/ha): 60 | phytotoxicity rating CHEAL ([18]; 63 g ai/ha): 80 | phytotoxicity rating CHEAL ([18]; 250 g ai/ha): 80 | phytotoxicity rating DIGSA ([19]; 63 g ai/ha): 0 | phytotoxicity rating DIGSA ([19]; 250 g ai/ha): 20 | phytotoxicity rating AMARE ([20]; 63 g ai/ha): 80 | phytotoxicity rating AMARE ([20]; 250 g ai/ha): 100 | phytotoxicity rating CASOB ([21]; 63 g ai/ha): 70 | phytotoxicity rating CASOB ([21]; 250 g ai/ha): 60 | phytotoxicity rating ABUTH ([22]; 63 g ai/ha): 100 | phytotoxicity rating ABUTH ([22]; 250 g ai/ha): 100 | phytotoxicity rating CORN ([23]; 63 g ai/ha): 15 | phytotoxicity rating CORN ([23]; 250 g ai/ha): 80 | phytotoxicity rating RICE ([24]; 63 g ai/ha): 45 | phytotoxicity rating RICE ([24]; 250 g ai/ha): 70
